Patent publication US20160031839A1, “ARGININE […] INHIBITORS AND USES THEREOF” (EPIZYME, INC., priority 2013, published 2016)
Where two headings read alike, the source gives them in different places.

Target: T1, CARM1 (PRMT4) (Homo sapiens, UniProt Q86X55)
T1 construct: Flag-CARM1-His was eluted with 200 ug/ml FLAG peptide in buffer A; made in house; host or cells: HEK 293F cells (BacMam baculovirus)
T1 sequence (Q86X55 2-585 isoform Q86X55-1): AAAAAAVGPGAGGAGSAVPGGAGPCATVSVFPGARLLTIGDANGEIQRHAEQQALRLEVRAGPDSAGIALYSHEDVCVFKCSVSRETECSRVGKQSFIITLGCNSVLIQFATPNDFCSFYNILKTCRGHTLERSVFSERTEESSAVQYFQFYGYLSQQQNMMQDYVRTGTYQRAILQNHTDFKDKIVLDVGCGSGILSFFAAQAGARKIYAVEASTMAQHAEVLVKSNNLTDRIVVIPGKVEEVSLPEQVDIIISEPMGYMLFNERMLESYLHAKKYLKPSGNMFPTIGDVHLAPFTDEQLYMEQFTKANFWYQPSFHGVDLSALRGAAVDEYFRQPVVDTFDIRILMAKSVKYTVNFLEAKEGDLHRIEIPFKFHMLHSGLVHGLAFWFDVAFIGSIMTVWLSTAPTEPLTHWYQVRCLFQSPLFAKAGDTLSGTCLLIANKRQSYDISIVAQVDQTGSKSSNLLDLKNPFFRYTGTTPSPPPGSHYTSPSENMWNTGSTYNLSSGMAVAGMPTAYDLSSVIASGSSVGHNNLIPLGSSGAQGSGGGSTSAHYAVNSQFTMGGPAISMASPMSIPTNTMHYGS
Assay: CARM1 Biochemical Assay
Text: Peptide representative of human histone H3 residues 16-30 was synthesized with an N-terminal linker-affinity tag motif and a C-terminal amide cap by 21st Century Biochemicals. The peptide was purified by high-performance liquid chromatography (HPLC) to greater than 95% purity and confirmed by liquid chromatography mass spectrometry (LC-MS). The sequence was Biot-Ahx-[…]-amide and contained a monomethylated arginine at position 26 (SEQ ID NO.: 14).
Human CARM1 (PRMT4) (NM_199141.1) transcript clone was amplified from an HEK 293 cDNA library, incorporating a flanking 5′ sequence encoding a FLAG tag ([…]) (SEQ ID NO.:6) fused directly to Ala 2 of CARM1 and 3′ sequence encoding a hexa His sequence ([…]) (SEQ ID NO.: 15) fused directly to Ser 608. The gene sequence encoding isoform1 containing a deletion of amino acids 539-561 was amplified subsequently and subcloned into pFastBacMam (Viva Biotech).
Column was washed with 500 mM NaCl in buffer A and Flag-CARM1-His was eluted with 200 ug/ml FLAG peptide in buffer A. Pooled fractions were dialyzed in 20 mM Tris, 150 mM NaCl, 5% glycerol and 1 mM DTT, pH 7.8. The purity of recovered protein was 94.
General Procedure for CARM1 Enzyme Assays on Peptide Substrates.
The assays were all performed in a buffer consisting of 20 mM Bicine (pH=7.6), 1 mM TCEP, 0.005% BSG, and 0.002% Tween 20, prepared on the day of use. Compounds in 100% DMSO (1 ul) were spotted into a polypropylene 384-well V-bottom plates (Greiner) using a Platemate Plus outfitted with a 384-channel head (Thermo Scientific). DMSO (1 ul) was added to Columns 11, 12, 23, 24, rows A-H for the maximum signal control and 1 ul of SAH, a known product and inhibitor of CARM1, was added to columns 11, 12, 23, 24, rows I-P for the minimum signal control. A cocktail (40 ul) containing the CARM1 enzyme was added by Multidrop Combi (Thermo-Fisher). The compounds were allowed to incubate with CARM1 for 30 min at room temperature, then a cocktail (10 ul) containing ^3H-SAM and peptide was added to initiate the reaction (final volume=51 ul). The final concentrations of the components were as follows: CARM1 was 0.25 nM, ^3H-SAM was 30 nM, peptide was 250 nM, SAH in the minimum signal control wells was 1 mM, and the DMSO concentration was 2%. The assays were stopped by the addition of non-radiolabeled SAM (10 ul) to a final concentration of 300 uM, which dilutes the ^3H-SAM to a level where its incorporation into the peptide substrate is no longer detectable. […] The plates were then read in a PerkinElmer TopCount plate reader to measure the quantity of ^3H-labeled peptide bound to the Flashplate surface, measured as disintegrations per minute (dpm) or alternatively, referred to as counts per minute (cpm). […]

[1] = Table 2, biochemical evaluation, read-out: PRMT4 IC50 (class)
[2] = Table 2a, numerical, single experiment or average of multiple experiments, read-out: PRMT4 IC50

**Q.** With CN(CCN)Cc1ncoc1-c1ccc(C#N)cc1 [Compound 1, 4-(4-(((2-aminoethyl)(methyl)amino)methyl)oxazol-5-yl)benzonitrile] as the compound, how does the IC50 [1] read?
**A.** The IC50 was over 10 µM.

**Q.** What about the IC50 [2] of the same compound?
**A.** Its IC50 is over 10 µM.

**Q.** With CN(CCN)Cc1ccnn1-c1ccc(C#N)cc1 [Compound 2, 4-(5-(((2-aminoethyl)(methyl)amino)methyl)-1H-pyrazol-1-yl)benzonitrile] as the compound, how does the IC50 [1] read?
**A.** Its IC50 is over 10 µM.

**Q.** And the IC50 [2]?
**A.** Its IC50 is over 10 µM.
